Molecular target: T1, PCP (putative cysteine protease)
T1 construct: domains 1-48, 49-185 (CHAP, Cys100/His161), 186-247 (PGBD), 248-319 (SH3); monomer; printed peptide 178PVTDALKR185; primers encode start (M)LGQISTA and end KYARLVE
Test: tryptophan fluorescence quenching, double-logarithm regression
Type: binding, uncultured bacterium (Capra hircus rumen metagenome)
Details: 50 mM NaH2PO4, 300 mM NaCl, 200 mM imidazole, pH 8.5, 25 °C; protein 5.28 μM; excitation 295 nm; read-out: Kb (converted)

CC1(C)S[C@@H]2[C@H](NC(=O)[C@H](N)c3ccccc3)C(=O)N2[C@H]1C(=O)O [ampicillin]
Kd: 5.56 µM
